Test results from patent publication US9980943B2, “Methods of treating muscular dystrophy” (BOARD OF REGENTS OF THE NEVADA SYSTEM OF HIGHER EDUCATION, …, priority 2013, dated 2018).

Experiments:
Assay type in all cases: cell-based, mouse
[1] = tested on: α7 integrin (LacZ reporter in α7βgal+/− myoblasts); assay: Myoblast α7+/LacZ integrin FDG assay (Burkin assay in myoblasts, 96-well); details: α7+/LacZ myoblasts, 96-well
[2] = tested on: α7 integrin (LacZ reporter in α7+/LacZ myotubes); assay: Myotube α7 integrin FDG assay (Burkin assay in myotubes, 96-well); details: myotubes
[3] = tested on: β-galactosidase in CMV-LacZ C2C12 myotubes; assay: CMV-LacZ secondary screen in C2C12 myotubes (β-Gal stabilizing assay); details: C2C12 CMV-LacZ myotubes, fold relative to DMSO
How it was run: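 CMV-LacZ C2C12 line (clonal, FDG-screened); myoblasts/myotubes dosed 0.5–40 μM (0.5, 1, 5, 10, 20, 40 μM); n=2 per point; β-gal stabilization read-out.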

SMILES	Burkin Assay in Myoblasts, signal relative to DMSO ([1]; 0.5 uM)	Burkin Assay in Myoblasts, signal relative to DMSO ([1]; 1 uM)	Burkin Assay in Myoblasts, signal relative to DMSO ([1]; 5 uM)	Burkin Assay in Myoblasts, signal relative to DMSO ([1]; 10 uM)	Burkin Assay in Myoblasts, signal relative to DMSO ([1]; 20 uM)	Burkin Assay in Myoblasts, signal relative to DMSO ([1]; 40 uM)	Burkin Assay in Myotubes, α7 integrin LacZ reporter signal relative to DMSO ([2]; 0.5 uM)	Burkin Assay in Myotubes, α7 integrin LacZ reporter signal relative to DMSO ([2]; 1 uM)	Burkin Assay in Myotubes, α7 integrin LacZ reporter signal relative to DMSO ([2]; 5 uM)	Burkin Assay in Myotubes, α7 integrin LacZ reporter signal relative to DMSO ([2]; 10 uM)	Burkin Assay in Myotubes, α7 integrin LacZ reporter signal relative to DMSO ([2]; 20 uM)	Burkin Assay in Myotubes, α7 integrin LacZ reporter signal relative to DMSO ([2]; 40 uM)	CMV-LACZ in Myotubes, signal relative to DMSO ([3]; 5 uM)	CMV-LACZ in Myotubes, signal relative to DMSO ([3]; 10 uM)	CMV-LACZ in Myotubes, signal relative to DMSO ([3]; 20 uM)	CMV-LACZ in Myotubes, signal relative to DMSO ([3]; 40 uM)	Burkin Assay in Myoblasts, value relative to DMSO ([1]; 0.5 uM)	Burkin Assay in Myoblasts, value relative to DMSO ([1]; 1 uM)	Burkin Assay in Myoblasts, value relative to DMSO ([1]; 5 uM)	Burkin Assay in Myoblasts, value relative to DMSO ([1]; 10 uM)	other results
Cn1c(=O)c2c(nc(Sc3ncnn3CC(=O)NC3CCCCC3)n2C)n(C)c1=O [MLS000663651-01]	1.143	1.059	0.9834	0.9551	0.9504	1.048	0.946	0.9099	1.106	1.007	1.017	0.9648	0.9636	0.9788	0.949	0.861					
CCCCNS(=O)(=O)c1ccc2nc(-c3cccnc3)cc(C(=O)NCCOC)c2c1 [MLS000673766-01]													0.9847	0.9632	1.11	1.04	1.02	1.061	0.928	1.0253	Burkin Assay in Myoblasts, value relative to DMSO ([1]; 20 uM): 0.91; Burkin Assay in Myoblasts, value relative to DMSO ([1]; 40 uM): 0.9919; Burkin Assay in Myotubes (signal relative to DMSO) ([2]; 0.5 uM): 0.968; Burkin Assay in Myotubes (signal relative to DMSO) ([2]; 1 uM): 0.9862; Burkin Assay in Myotubes (signal relative to DMSO) ([2]; 5 uM): 0.896; Burkin Assay in Myotubes (signal relative to DMSO) ([2]; 10 uM): 0.9276; Burkin Assay in Myotubes (signal relative to DMSO) ([2]; 20 uM): 0.8272; Burkin Assay in Myotubes (signal relative to DMSO) ([2]; 40 uM): 0.8717
O=Cc1cn(Cc2ccc(F)cc2Cl)c2ccccc12 [MLS000676974-01]													1.077	0.4574	1.083	0.46	1.105	1.137	0.99	1.099	Burkin Assay in Myoblasts, value relative to DMSO ([1]; 20 uM): 0.6673; Burkin Assay in Myoblasts, value relative to DMSO ([1]; 40 uM): 0.5184; Burkin Assay in Myotubes (signal relative to DMSO) ([2]; 0.5 uM): 0.9171; Burkin Assay in Myotubes (signal relative to DMSO) ([2]; 1 uM): 0.9021; Burkin Assay in Myotubes (signal relative to DMSO) ([2]; 5 uM): 0.7009; Burkin Assay in Myotubes (signal relative to DMSO) ([2]; 10 uM): 0.5994; Burkin Assay in Myotubes (signal relative to DMSO) ([2]; 20 uM): 0.9758; Burkin Assay in Myotubes (signal relative to DMSO) ([2]; 40 uM): 0.5447
O=c1oc2c(-c3cccc(F)c3)cc(O)cc2s1 [MLS000680049-01]	0.9998	1.103	0.9693	0.9727	0.7493	0.6354	0.8875	1.056	1.047	1.22	0.8731	0.4379	1.127	1.106	1.4405	0.4315					
